Data published in the NIST ThermoML archive (doi:10.1021/je500498m).

What was measured:
[1] = xn = mol fraction of the nth substance listed; conditions: x1 = 1; for speed of sound: 100 kPa, Sing-around technique in a fixed-path interferometer; for speed of sound / viscosity / mass density: Liquid; for viscosity / mass density: 101 kPa; for viscosity: Falling or rolling sphere viscometry; for mass density: Vibrating tube method
[2] = for speed of sound: 100 kPa, Sing-around technique in a fixed-path interferometer; for speed of sound / viscosity / mass density: Liquid; for viscosity / mass density: 101 kPa; for viscosity: Falling or rolling sphere viscometry; for mass density: Vibrating tube method; for surface tension liquid-gas: 294.4 K, Pendant drop shape

Cc1ccccc1 [toluene] + CCCCCCCCCCCCCCCC
[1]
Conditions	mass density [kg/m3]	speed of sound [m/s]	viscosity [mPa·s]
293.15 K	866.84	1326.8	0.59
303.15 K	857.53	1283.7	0.52
313.15 K	848.14	1241.1	–
323.15 K	838.7	1199	0.42
333.15 K	829.16	1157.6	0.38
343.15 K	819.6	–	0.35
353.15 K	809.7	–	0.32
363.15 K	799.7	–	0.27

Conditions	surface tension liquid-gas [mN/m]
[1], 294.4 K, Pendant drop shape	28.4

CCc1ccccc1 [ethylbenzene]
[2]
Conditions	mass density [kg/m3]	speed of sound [m/s]	viscosity [mPa·s]
293.15 K	866.95	1339.7	0.67
303.15 K	858.15	1298.1	0.59
313.15 K	849.29	1256.9	–
323.15 K	840.38	1216.4	0.48
333.15 K	831.4	1176.4	0.44
343.15 K	822.3	–	0.4
353.15 K	813.1	–	0.36
363.15 K	803.7	–	0.33
373.15 K	794.2	–	0.31

Conditions	surface tension liquid-gas [mN/m]
[2]	29.2

Cc1ccccc1 [toluene]
[2]
Conditions	mass density [kg/m3]	speed of sound [m/s]	viscosity [mPa·s]
293.15 K	866.84	1326.8	0.59
303.15 K	857.53	1283.7	0.52
313.15 K	848.14	1241.1	–
323.15 K	838.7	1199	0.42
333.15 K	829.16	1157.6	0.38
343.15 K	819.6	–	0.35
353.15 K	809.7	–	0.32
363.15 K	799.7	–	0.27

Conditions	surface tension liquid-gas [mN/m]
[2]	28.4
